Structures can show the parent of a compound that is named as a salt.

For the first assay, the system named is male CD-1 mice. The assay can be described thus: acetic acid induced writhing test (analgesic activity, subcutaneous). The assay is classed as in vivo. Conditions: Mus musculus, sc, 0.5% acetic acid i.p. 15 min post drug, writhes counted in 20 min interval beginning 5 min after acetic acid, read-out: ED50 (dose required to reduce the number of writhes by 50%). On the procedure: The analgesic activity of the isoquinoline propionanilides prepared as described in Examples I-XIII was determined by the acetic acid induced writhing test described by Whittle et al., Brit. J. Pharmacol, 22 296 (1964). In this test at least three groups of five male CD-1 mice each were given subcutaneous doses of the test drug dissolved in either distilled water or distilled water acidified with HCl depending on solubility of the compound. In all cases 0.4 ml. of 0.5% v/v acetic acid in distilled water was administered intraperitoneal 15 minutes post drug. The number of writhes in a 20 minute interval beginning 5 minutes after the acetic acid injection were determined and compared with the number of writhes in control groups which had received only acetic acid. In two cases the ITME writhing test protocol was used which is the same as that outlined above except that the number of writhes are determined for 10 minutes after the administration of acetic acid.
Percent inhibition of writhing was calculated as: [formula]
The ED50 does, ie. the dose required to reduce the number of writhes by 50%, was determined graphically from a plot of % inhibition as a probit versus log dose. Confidence limits of 95% were calculated on the basis of those results falling in the range 16-84% inhibition. See Litchfield, J. T. and Wilcoxon, F., J Pharmacol. Exp. Ther., 96 99-113, (1949).
Take `CCC(=O)N(CC1c2ccccc2CCN1C)c1ccc(C)cc1.Cl` (stereo not shown) [TR-3355, N-[(1,2,3,4-Tetrahydro-2-methyl-1-isoquinolyl)methyl]-N-(4-methylphenyl)propionamide hydrochloride]: the ED50 was determined as 0.53 mg/kg.
Still for that read-out and setting: the result for `CCCCCCN1CCc2ccccc2C1CN(C(=O)CC)c1ccccc1.O.O=C(O)C(=O)O` (stereo not shown) [TR-3309, N-[(1,2,3,4-Tetrahydro-2-n-hexyl-1-isoquinolyl)methyl]propionanilide oxalate hydrate] reads 2.08 mg/kg; that for `CCC(=O)N(CC1c2ccccc2CCN1CC1CC1)c1ccccc1.Cl` (stereo not shown) [TR-3207, N-[(1,2,3,4-Tetrahydro-2-cyclopropylmethyl-1-isoquinolyl)methyl]propionanilide hydrochloride], 7.45 mg/kg.
The same measure, in the same setting: the result for `CCC(=O)N(CC1c2ccccc2CCN1C)c1ccccc1.Cl` (stereo not shown) [TR-3284, N-[(1,2,3,4-Tetrahydro-2-methyl-1-isoquinolyl)methyl]propionanilide hydrochloride] reads 7.1 mg/kg.
Same read-out and setting: the result for `CCC(=O)N(CC1c2ccccc2CCN1C)c1ccccn1` (stereo not shown) [TR-3461, N-[(2-Methyl-1,2,3,4-tetrahydro-1-isoquinolyl)methyl]-N-(2-pyridyl)priopionamide hydrochloride] reads 10.7 mg/kg.
In the case of `CCC(=O)N(CC1c2ccccc2CCN1Cc1ccccc1)c1ccccc1.Cl` (stereo not shown) [TR-3359, N-[(1,2,3,4-Tetrahydro-2-benzyl-1-isoquinolyl)methyl]propionanilide hydrochloride], the ED50 worked out at 15 mg/kg.
Same read-out and setting: as for `CCC(=O)N(Cc1ccccc1)CC1c2ccccc2CCN1C` (stereo not shown) [TR-3389, N-[(1,2,3,4-Tetrahydro-2-methyl-1-isoquinolyl)methyl]-N-benzylpropionamideoxalate], the figure is 23 mg/kg.
Same read-out and setting: the result for `CCCCCN1CCc2ccccc2C1CN(C(=O)CC)c1ccccc1.Cl` (stereo not shown) [TR-3316, N-[(1,2,3,4-Tetrahydro-2-n-pentyl-1-isoquinolyl)methyl]propionanilide hydrochloride] reads 1.76 mg/kg; that for `CCC(=O)N(CC1c2cc(OC)c(OC)cc2CCN1C)c1ccccc1` (stereo not shown) [TR-3426, N-[(6,7-Dimethoxy-2-methyl-1,2,3,4-tetrahydro-1-isoquinolyl)methyl]propionanilide], 4.55 mg/kg; that for `CCC(=O)N(CC1c2ccccc2CCN1C)c1ccc(Cl)cc1.Cl` (stereo not shown) [TR-3354, N-[(1,2,3,4-Tetrahydro-2-methyl-1-isoquinolyl)methyl]N-(4-chlorophenyl)propionamide hydrochloride], 0.5 mg/kg.
Regarding `CCC(=O)N(Cc1ccccc1)CC1c2ccccc2CCN1Cc1ccccc1` (stereo not shown) [TR-3388, N-[(1,2,3,4-Tetrahydro-2-benzyl-1-isoquinolyl)methyl]-N-benzylpropionamideoxalate], the ED50 was 33 mg/kg.

Staying with this assay, now noted: Mus musculus, sc, 10 min, *According to IMTE writhing test protocol: writhes determined for 10 minutes after acetic acid, read-out: ED50 (dose required to reduce the number of writhes by 50%).
For `CCC(=O)N(CC1c2ccccc2CCN1CCc1ccccc1)c1ccccc1.Cl` (stereo not shown) [TR-3280, N-[(1,2,3,4-Tetrahydro-2-phenethyl-1-isoquinolyl)methyl]propionanilide hydrochloride], the ED50 was 10 mg/kg.
Turning to `CCC(=O)N(CC1c2ccccc2CCN1CCC(C)C)c1ccccc1.Cl` (stereo not shown) [TR-3317, N-[(1,2,3,4-Tetrahydro-2-i-pentyl-1-isoquinolyl)methyl]propionanilide hydrochloride], the ED50 amounted to 16.5 mg/kg.

These data come from US4232160A, “Isoquinoline propionamides exhibiting analgesic properties” (Miles Laboratories, Inc., priority 1978, dated 1980).
